Experimental data: patent US20060135608A1, “Eicosapentaenoic acid (epa) for treating anorexia nervosa (an) and bulimia” (priority 2002, published 2006)

Tests used:
patient with AN = test: Example 1: case of a patient with AN treated with 1 g/d ethyl-EPA; format: in vivo, human
Excerpt: A patient presented with a 14-month history of dieting and eating difficulties. These had started with dietary restrictions and excessive exercise and proceeded to laxative abuse. Two months prior to being first seen they had stopped taking all solid food. When first seen their weight was still within the normal range for their height at 55 kg for 1.63 m. However, they had lost 8 kg since stopped solid food, had stopped menstruation and begun to grow the fine, downy “lanugo” hair over their body which is common in AN.
They were treated with a standard AN regime of family therapy, psychotherapy and dietary advice. This was ineffective and over the next two months they lost around 10 kg which necessitated their admission to hospital. At this point they were extremely distressed and unable or unwilling to maintain a conversation. Despite their emaciation they were still preoccupied with being fat and wanted to lose more weight. Their heart rate was very slow and their blood glucose was low, signs of starvation. They were treated as an emergency with compulsory naso-gastric feeding with parental consent. After two weeks of this therapy they had gained a little over 2 kg and begun to eat small amounts by mouth. At the end of this time their family removed them from hospital against medical advice.
Over the following ten days they lost a further 5 kg in weight to 42 kg. Their doctors believed that their life was in danger and so obtained an order for compulsory admission to hospital. At the start of this admission they were treated with 1 g/d of ethyl-eicosapentaenoate (E-EPA). This transformed their response to treatment. […] Their mood and cognitive functions improved and they became normally communicative. Instead of being obsessed by weight and food to the exclusion of everything else, they became interested in all aspects of their life and their future. […] After 12 weeks they were discharged from hospital and their body weight stabilised around a normal 62-65 kg. They took a summer job which they enjoyed and completed successfully and enrolled in a college course.

[1] = test system: patients with anorexia nervosa; test: Example 2: seven patients with anorexia nervosa or related disorders treated with 1 g/day E-EPA; format: in vivo, human
Excerpt: Seven patients underwent treatment of their disorders using EPA. FIGS. 1-5 summarise the results of this study. Participants were given 1 g/day ethyl-EPA (E-EPA) for an initial 3 month period. The E-EPA provided by Laxdale Limited was over 95% pure EPA. If the patient and family wished to continue beyond 3 months, the dose was continued, and in some cases increased beyond 1 g/day. All patients were offered the standard treatment available at the local district health services, including full psychiatric and physical assessment, regular monitoring of physical parameters. Parameters monitored on a monthly basis included the patient's weight and height. BMI, and average body weight and height (ABW) were calculated using Weight 4 Height software (based on 1990 British reference data by the Child Growth Foundation). The following standard psychometric measures were used: EDI-2, BDI-2, CGAS, CGI-S, Morgan-Russell, and patient Likert Scales (including problems, general and improvement).

[2] = 3 months after discharge, scored 0 to 12
[3] = Patient 2, 1-year follow-up, dosage increased to 2 g/day in later stages
[4] = Patient 5, after three months, 1 g/day
[5] = Patient 6, end of three months, 1 g/day

## CC/C=C\C/C=C\C/C=C\C/C=C\C/C=C\CCCC(=O)OCC [E-EPA, ethyl-eicosapentaenoate]
Patient with AN; 1 g/d, over 12 weeks
  body image perceptions: lost their distorted body image perceptions
  mood and cognitive functions: improved
Patient with AN; 1 g/d, over the following weeks
  eating: began to eat normally
Patient with AN; 2nd hospital discharge on EPA (12 weeks, 1 g/d), 42 at 2nd hospital admission
  Wt kg: 57 kg
Patient with AN; 2nd hospital discharge on EPA, scored 0 to 12, 12 completely normal, 1.2 at 2nd admission
  MR-O (Morgan-Russell overall scale): 12.0
Patient with AN; 2nd hospital discharge on EPA, scored 0 to 12, 0.0 at 2nd admission
  MR-A (food intake): 12.0
Patient with AN; 2nd hospital discharge on EPA, scored 0 to 12, 1.0 at 2nd admission
  MR-E (overall social-economic-health state): 9.0
Patient with AN; 2nd hospital discharge on EPA, scored 0 to 12, 4.0 at 2nd admission
  MR-C (mental state): 8.0
Patient with AN; 3 months after discharge
  Wt kg: 63 kg
Patient with AN; [2]
  MR-A (food intake): 12.0
  MR-C (mental state): 12.0
  MR-E (overall social-economic-health state): 11.0
  MR-O (Morgan-Russell overall scale): 12.0
Patient with AN; after discharge from hospital at 12 weeks
  body weight stabilised: 62 to 65 kg
Patient with AN; within 12 weeks of 1 g/d, 42 kg at start
  body weight: 57 kg
[1]; [3]
  ABW: 88.3%
  BMI: 17.74
[1]; Patient 2, after restart of E-EPA and zinc treatment
  clinical response: significant improvement
[1]; Patient 2, after stopping E-EPA at 6 months
  lowest ABW: 73%
[1]; Patient 2, by three months, 1 g/day
  clinical response: partially improved
[1]; Patient 2, three months, 1 g/day, 84.4% after NG feeding
  ABW: 86.34%
[1]; Patient 3, in three months, 1 g/day
  growth in height: 3 cm
[1]; Patient 3, three months, 1 g/day
  mental state: significantly improved
[1]; Patient 3, three months, 1 g/day, 13.3 at referral
  BMI: 15.5
[1]; Patient 3, three months, 1 g/day, 74.4% at referral
  ABW: 81%
[1]; Patient 4, 1 g/day
  psychometric measures: marked improvement
[1]; Patient 4, 1 g/day for a total of 6 months, 83.9% at discharge from paediatric hospital
  weight stabilised, ABW: around 85.5%
[1]; Patient 4, after two months, 1 g/day
  mood: dramatic improvement
[1]; Patient 4, within three months after they stopped taking the E-EPA
  ABW: 80%
[1]; Patient 5, E-EPA increased to 4 g/day
  panic attacks: helped with their panic attacks
[1]; [4]
  anxiety: did not improve
  weight, eating habits and mood: dramatic improvement
[1]; Patient 5, after three months, 1 g/day, 17.15 before
  BMI: 20
[1]; Patient 5, after three months, 1 g/day, 77% before
  ABW: 90%
[1]; [5]
  anorexic symptoms: complete resolution
  growth in height: 3 cm
[1]; Patient 6, end of three months, 1 g/day, 17.57 at first presentation
  BMI: 19.1
[1]; Patient 6, end of three months, 1 g/day, 87% at first presentation
  ABW: 93.6%
[1]; Patient 6, within the first 4-6 weeks, 1 g/day
  clinical response: improved dramatically
[1]; Patient 7, during three months treatment
  growth in height: 1.5 cm
[1]; Patient 7, end of three months treatment, 1 g/day, 14.8 before
  BMI: 16.21
[1]; Patient 7, end of three months treatment, 1 d/day, 78.21 before
  ABW: 84.5%
[1]; Patient No 1, after 2 months of treatment
  clinical response (appetite, mood, self-esteem, psychometric measures): remarkable improvement
[1]; Patient No 1, after three months of 1 g E-EPA, 16.9 at hospital admission
  BMI: 22.8
[1]; Patient No 1, after three months of 1 g E-EPA, 83.6% at hospital admission
  ABW: 111%
[1]; Patient No 1, one-year follow-up, E-EPA stopped after three months
  relapse of anorexia: no return of their anorexia
[1]; of the seven patients
  cases with complete recovery: three
  cases with partial improvement: four
[1]; patients who had growth delay, during the time of the E-EPA treatment
  growth response: significant growth
[1]; seven patients
  deterioration whilst taking the E-EPA: no patient deteriorated
